Measurements from patent publication US20250375526A1, “IRAK DEGRADERS AND USES THEREOF” (Kymera Therapeutics, Inc., priority 2020, published 2025).

Each molecule was assayed against T1, IRAK4 (Homo sapiens, UniProt Q9NWZ3) (assay: OCI-LY10 IRAK MSD assay DC50 (IRAK4 degradation)). Details: OCI-Ly10 cells, incubated for 4 hr, concentration of compound required to degrade 50% of protein.
T1 construct: endogenous in cells; host or cells: OCI-Ly10
T1 sequence (Q9NWZ3 1-460): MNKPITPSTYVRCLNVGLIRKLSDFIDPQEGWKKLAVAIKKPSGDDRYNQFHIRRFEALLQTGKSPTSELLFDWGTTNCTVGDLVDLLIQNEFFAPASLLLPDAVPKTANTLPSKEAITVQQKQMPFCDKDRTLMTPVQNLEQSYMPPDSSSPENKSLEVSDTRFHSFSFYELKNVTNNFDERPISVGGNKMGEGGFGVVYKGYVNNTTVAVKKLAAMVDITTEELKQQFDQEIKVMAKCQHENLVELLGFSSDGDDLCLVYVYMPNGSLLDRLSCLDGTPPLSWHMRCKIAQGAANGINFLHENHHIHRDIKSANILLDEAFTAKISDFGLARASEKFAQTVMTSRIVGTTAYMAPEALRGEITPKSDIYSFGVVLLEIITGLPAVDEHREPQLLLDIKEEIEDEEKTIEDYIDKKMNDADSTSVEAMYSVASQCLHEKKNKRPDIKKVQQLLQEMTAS
Assay type: cell-based
Experimental: A MSD assay is run to determine the concentration of compound required to degrade 50% of protein (DC50).
• Compounds were reconstituted to 10 mM in stock solutions. The stock solutions were diluted to 5 mM and 45 μL of each dilution was transferred to a 384 pp-plate. A 3 fold, 8-point serial dilution was performed by transferring 15 μL of compound into 30 μL DMSO using Janus. • 20 nL of each compound were added into each well of a 96-well plate (Corning3799). • OCI-Ly10 cells were seeded into the 96-well plate at 3.0*10e^5 cells/100 μL/well. • The cell plate was shaken at 720 rpm for 5 min and incubated for 4 hr. • 100 μL of cells were transferred into the 96-PCR plate and spun down at high speed for 5 mins. • The supernatant was discarded and 100 μL of RIPA lysis buffer with proteinase inhibitors was added per well. The plate was then sealed and shaken at 600 rpm and 4° C. for about 20 min. • The plate was then spun down at high speed (about 3200 g) for 30 min and then frozen in a −80° C. fridge. • A bare MSD plate (L15XA-3) was coated with 2 μg/mL of capture antibody (mouse Anti-IRAK4 antibody [2H9], ab119942) in PBS to 40 μL/well and incubated overnight at 4° C.
• The MSD coated plate was washed 3× (150 μL/well) with 1×TBST (CST #9997S). • The MSD plate was then blocked with 150 μL of blocking buffer [3% Blocker A (MSD, R93BA-4) in TBST]/well and shaken for 1 hr at RT and 600 rpm. • The MSD plate was washed 3× (150 μL/well) with 1×TBST. The sample RIPA lysates were then added to the MSD plate (50 μL/well) and shaken for 1 hr at RT and 600 rpm. • The MSD plate was washed 3× (150 μL/well) with 1×TBST and the primary detection antibody (Rabbit Anti-IRAK4 antibody [Y279], ab32511) was added to a final concentration of 1 μg/ml with 25 μL/well. The plate was then shaken for 1 hr at RT and 600 rpm. • The MSD plate was washed 3× (150 μL/well) with 1×TBST and the secondary detection antibody, SULFO-TAG anti-species antibody (Anti Rabbit Antibody (R32AB-5) MSD, R32AB-1) was added to a volume of 25 μL/well at a final concentration of 1 μg/ml. The plate was then shaken for 1 hr at RT and 600 rpm. • The MSD plate was then washed 3× (150 μL/well) with 1×TBST. • 1×MSD reading buffer was then added (150 μL/well) and the plate […].
(MSD, R92TC-2) • The MSD instrument was then read.
The remaining activity was calculated following the formula below:
• The DC50 was calculated by fitting the Curve using Xlfit (v5.3.1.3), equation 201: […]
The letter codes for IRAK4 DC50 indicate the concentration of compound required to degrade 50% of protein: A (<0.01 μM), B (0.01-0.1 μM), C (>0.1-0.2 μM), D (>0.2 μM).

| SMILES | DC50 [nM] |
| --- | --- |
| O=C1CCN(c2cncc3c(C4CCN(C[C@H]5CC[C@H](n6cc7cc(NC(=O)c8cccc(C(F)(F)F)n8)ccc7n6)CC5)CC4)cccc23)C(=O)N1 [I-10] | 10 to 100 |
| O=C1CCN(c2cncc3cc(C4CCN(C[C@H]5CC[C@H](n6cc7cc(NC(=O)c8cccc(C(F)(F)F)n8)ncc7n6)CC5)CC4)ccc23)C(=O)N1 [I-18] | < 10 |
| CN(C[C@H]1CC[C@H](n2cc3cc(NC(=O)c4cccc(C(F)(F)F)n4)ccc3n2)CC1)C1CCN(c2ccc3c(N4CCC(=O)NC4=O)cncc3c2)CC1 [I-19] | 10 to 100 |
| CN(C[C@H]1CC[C@H](n2cc3cc(NC(=O)c4cccc(C(F)(F)F)n4)ccc3n2)CC1)C1CCN(c2cccn3c(N4CCC(=O)NC4=O)cnc23)CC1 [I-27] | > 200 |
| O=C1CCN(c2cnc3c(C4CCN(C[C@H]5CC[C@H](n6cc7cc(NC(=O)c8cccc(C(F)(F)F)n8)ccc7n6)CC5)CC4)cccn23)C(=O)N1 [I-28] | > 200 |
| O=C1CCN(c2cnc3c(C4CCN(C[C@H]5CC[C@H](n6cc7cc(NC(=O)c8cccc(C(F)(F)F)n8)ncc7n6)CC5)CC4)cccn23)C(=O)N1 [I-29] | 10 to 100 |
| CN(C[C@H]1CC[C@H](n2cc3cc(NC(=O)c4cccc(C(F)(F)F)n4)ncc3n2)CC1)C1CCN(c2cccn3c(N4CCC(=O)NC4=O)cnc23)CC1 [I-30] | 100 to 200 |
| CN(C[C@H]1CC[C@H](n2cc3cc(NC(=O)c4cccc(C(F)(F)F)n4)ncc3n2)CC1)C1CCN(c2ccn3c(N4CCC(=O)NC4=O)cnc3c2)CC1 [I-33] | < 10 |
| CN(C[C@H]1CC[C@H](n2cc3cc(NC(=O)c4cccc(C(F)(F)F)n4)ccc3n2)CC1)C1CCN(c2ccn3c(N4CCC(=O)NC4=O)cnc3c2)CC1 [I-35] | < 10 |
| COc1cc2nn([C@H]3CC[C@H](CN4CCC(c5ccn6c(N7CCC(=O)NC7=O)cnc6c5)CC4)CC3)cc2cc1NC(=O)c1cccc(C(F)(F)F)n1 [I-36, N-[2-[4-[[4-[3-(2,4-dioxohexahydropyrimidin-1-yl)imidazo[1,2-a]pyridin-7-yl]-1-piperidyl]methyl]cyclohexyl]-6-methoxy-indazol-5-yl]-6-(trifluoromethyl)pyridine-2-carboxamide] | < 10 |
| O=C1CCN(c2cnc3cc(C4CCN(C[C@H]5CC[C@H](n6cc7cc(NC(=O)c8cccc(C(F)(F)F)n8)ncc7n6)CC5)CC4)ccn23)C(=O)N1 [I-37] | > 200 |
| O=C1CCN(c2cnc3cc(C4CCN(C[C@H]5C[C@H](n6cc7cc(NC(=O)c8cccc(C(F)(F)F)n8)ccc7n6)C5)CC4)ccn23)C(=O)N1 [I-38] | 10 to 100 |
| O=C1CCN(c2cnc3c(C4CCN(C[C@H]5C[C@H](n6cc7cc(NC(=O)c8cccc(C(F)(F)F)n8)ccc7n6)C5)CC4)cccn23)C(=O)N1 [I-39, N-[2-[3-[[4-[3-(2,4-dioxohexahydropyrimidin-1-yl)imidazo[1,2-a]pyridin-8-yl]-1-piperidyl]methyl]cyclobutyl]indazol-5-yl]-6-(trifluoromethyl)pyridine-2-carboxamide] | > 200 |
| COc1cc2nn([C@H]3C[C@H](CN4CCC(c5cccc6c(N7CCC(=O)NC7=O)cncc56)CC4)C3)cc2cc1NC(=O)c1cccc(C(F)(F)F)n1 [I-40] | 10 to 100 |
| O=C1CCN(c2cnc3cc(C#CCO[C@@H]4CCN(C[C@H]5C[C@H](n6cc(NC(=O)c7cnn8ccc(N9C[C@H]%10C[C@@H]9CO%10)nc78)c(C(F)F)n6)C5)C[C@@H]4F)ccn23)C(=O)N1 [I-42] | < 10 |
| COc1cc2nn([C@H]3CC[C@H](CN(C)C4CCN(c5cccn6c(N7CCC(=O)NC7=O)cnc56)CC4)CC3)cc2cc1NC(=O)c1cc(F)cc(C(F)(F)F)c1 [I-43] | 10 to 100 |
| COc1cc2nc([C@H]3CC[C@H](CN(C)C4CCN(c5cccn6c(N7CCC(=O)NC7=O)cnc56)CC4)CC3)sc2cc1NC(=O)c1cccc(C(F)(F)F)n1 [I-44] | 10 to 100 |
| COc1cc2nn([C@H]3CC[C@H](CN4C5CCC4CN(c4ccn6c(N7CCC(=O)NC7=O)cnc6c4)C5)CC3)cc2cc1NC(=O)c1cccc(C(F)(F)F)n1 [I-45] | 10 to 100 |

| SMILES | DC50 [nM] |
| --- | --- |
| COc1cc2nn([C@H]3CC[C@H](CN4CCCN(c5cccn6c(N7CCC(=O)NC7=O)cnc56)CC4)CC3)cc2cc1NC(=O)c1cccc(C(F)(F)F)n1 [I-47] | 10 to 100 |
| COc1cc2nc([C@H]3CC[C@H](CN4CCN(c5ccn6c(N7CCC(=O)NC7=O)cnc6c5OC)CC4)CC3)sc2cc1NC(=O)c1cccc(C(F)(F)F)n1 [I-48] | 10 to 100 |
| Cc1cc2nn([C@H]3CC[C@H](CN4CCN(c5cccn6c(N7CCC(=O)NC7=O)cnc56)CC4)CC3)cc2cc1NC(=O)c1cccc(C(F)(F)F)n1 [I-49] | 10 to 100 |
| COc1cc2nc([C@H]3CC[C@H](CN4CCN(c5ccn6c(N7CCC(=O)NC7=O)cnc6c5C)CC4)CC3)sc2cc1NC(=O)c1cccc(C(F)(F)F)n1 [I-50] | 10 to 100 |
| COc1cc2nn([C@H]3CC[C@H](CN4C[C@@H]5C[C@H]4CN5c4ccn5c(N6CCC(=O)NC6=O)cnc5c4)CC3)cc2cc1NC(=O)c1cccc(C(F)(F)F)n1 [I-52] | 10 to 100 |
| COc1cc2nn([C@H]3CC[C@H](CN4C5CCC4CN(c4cccn6c(N7CCC(=O)NC7=O)cnc46)C5)CC3)cc2cc1NC(=O)c1cccc(C(F)(F)F)n1 [I-53] | < 10 |
| COc1cc2nn([C@H]3CC[C@H](CN4C[C@@H]5C[C@H]4CN5c4cccn5c(N6CCC(=O)NC6=O)cnc45)CC3)cc2cc1NC(=O)c1cccc(C(F)(F)F)n1 [I-54] | 10 to 100 |
| COc1cc2nn([C@H]3CC[C@H](CN4C[C@H]5C[C@@H]4CN5c4cccn5c(N6CCC(=O)NC6=O)cnc45)CC3)cc2cc1NC(=O)c1cccc(C(F)(F)F)n1 [I-55] | 10 to 100 |
| COc1cc2nn([C@H]3CC[C@H](CN4C[C@H]5C[C@@H]4CN5c4ccn5c(N6CCC(=O)NC6=O)cnc5c4)CC3)cc2cc1NC(=O)c1cccc(C(F)(F)F)n1 [I-56] | 10 to 100 |
| COc1cc2nn([C@H]3CC[C@H](CN4C5CC4CN(c4cccn6c(N7CCC(=O)NC7=O)cnc46)C5)CC3)cc2cc1NC(=O)c1cccc(C(F)(F)F)n1 [I-57] | 10 to 100 |
| COc1cc2nc([C@H]3CC[C@H](CN4CCC(c5cc(OC)c6ncc(N7CCC(=O)NC7=O)n6c5)CC4)CC3)sc2cc1NC(=O)c1cccc(C(F)(F)F)n1 [I-58] | > 200 |
| C[C@H]1CN(C[C@H]2C[C@H](n3cc(NC(=O)c4cnn5ccc(N6C[C@H]7C[C@@H]6CO7)nc45)c(C(F)F)n3)C2)CC[C@@H]1OCC#Cc1ccn2c(N3CCC(=O)NC3=O)cnc2c1 [I-59] | < 10 |
| O=C1CCN(c2cnc3c(C#CCN4CCN(C[C@H]5CC[C@H](n6cc(NC(=O)c7cnn8ccc(N9C[C@H]%10C[C@@H]9CO%10)nc78)c(C(F)F)n6)CC5)CC4)cccn23)C(=O)N1 [I-60] | < 10 |
| C[C@H]1CN(C[C@H]2CC[C@H](n3cc(NC(=O)c4cnn5ccc(N6C[C@H]7C[C@@H]6CO7)nc45)c(C(F)F)n3)CC2)CC[C@@H]1OCC#Cc1cccn2c(N3CCC(=O)NC3=O)cnc12 [I-61] | < 10 |
| C[C@@H]1CN(C[C@H]2CC[C@H](n3cc(NC(=O)c4cnn5ccc(N6C[C@H]7C[C@@H]6CO7)nc45)c(C(F)F)n3)CC2)CC[C@H]1OCC#Cc1cccn2c(N3CCC(=O)NC3=O)cnc12 [I-62] | < 10 |
| C[C@H]1CN(C[C@H]2CC[C@H](n3cc(NC(=O)c4cnn5ccc(N6C[C@H]7C[C@@H]6CO7)nc45)c(C(F)F)n3)CC2)CC[C@@H]1OCC#Cc1ccn2c(N3CCC(=O)NC3=O)cnc2c1 [I-63] | < 10 |
| C[C@@H]1CN(C[C@H]2CC[C@H](n3cc(NC(=O)c4cnn5ccc(N6C[C@H]7C[C@@H]6CO7)nc45)c(C(F)F)n3)CC2)CC[C@H]1OCC#Cc1ccn2c(N3CCC(=O)NC3=O)cnc2c1 [I-64] | < 10 |
